The record followed here is patent publication US12692274B2, “Tetrahydroisoquinoline derivatives for the treatment of red blood disorders and inflammatory diseases” (Sanofi, priority 2020, dated 2026).

Values joined by “and” are separate entries in the source; they are usually repeats but may differ in a detail not shown here. Equal entries are not always repeated. Where two headings read alike, the source gives them in different places.

The subject of series [1] is NQO1 activation in BEAS-2B cells. Briefly: BEAS-2B cellular MTT assay of NQO1 activation, 0.3% HSA. Type of series: cell-based. The following applies: BEAS+, read-out: BEAS+ EC50. The method, boiled down:
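MTT read-out in BEAS-2B cells grown in BEBM with SingleQuots, no GA-1000, kept below 70% confluence; plates coated with collagen, with 0.3% or 0% HSA medium, seeded to 95-100% confluency at 48 h, 37 °C, 5% CO2.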

Series [2] has the same test system. Put plainly: BEAS-2B cellular MTT assay of NQO1 activation, 0% HSA. Type of series: cell-based. To be noted: serum free, read-out: BEAS EC50 (nM) serum free. The method, boiled down:
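For the 0% HSA condition, cells were seeded into collagen plates in HSA-free medium. Culture was BEAS-2B in BEBM plus BEGM SingleQuots lacking GA-1000, held under 70% confluence, at a seeding density reaching 95-100% confluence by 48 h.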
On the technique in general: Tetrazolium assays rely on reduction of a dye to a coloured formazan, in cell work by metabolically active cells.

The target of series [3] is HIS-Keap1 full length / Biotin-Nrf2 (16-mer) (Homo sapiens, UniProt Q14145). Briefly: biochemical.
For series [4] the following is noted: the molecule shown is the open-chain precursor, rcm bond.

Chain of HIS-Keap1 full length / Biotin-Nrf2 (16-mer) (Q14145 whole entry): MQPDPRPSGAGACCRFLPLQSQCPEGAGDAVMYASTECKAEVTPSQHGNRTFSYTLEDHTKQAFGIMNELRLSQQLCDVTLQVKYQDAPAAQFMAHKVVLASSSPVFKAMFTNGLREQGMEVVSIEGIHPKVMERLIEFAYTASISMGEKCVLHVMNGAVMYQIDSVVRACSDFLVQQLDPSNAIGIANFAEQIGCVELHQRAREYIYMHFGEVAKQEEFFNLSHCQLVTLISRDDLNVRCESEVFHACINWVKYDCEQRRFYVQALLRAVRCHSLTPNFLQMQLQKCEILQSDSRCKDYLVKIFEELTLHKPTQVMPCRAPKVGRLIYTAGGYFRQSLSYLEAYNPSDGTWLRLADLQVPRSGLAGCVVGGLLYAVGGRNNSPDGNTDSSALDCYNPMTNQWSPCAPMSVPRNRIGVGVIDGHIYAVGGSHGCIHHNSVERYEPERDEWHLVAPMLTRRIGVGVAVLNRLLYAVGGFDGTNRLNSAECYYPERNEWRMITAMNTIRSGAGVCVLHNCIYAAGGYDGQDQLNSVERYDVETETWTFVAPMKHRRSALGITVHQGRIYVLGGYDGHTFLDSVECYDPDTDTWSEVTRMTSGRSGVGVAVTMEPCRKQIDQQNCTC

Consider `COC(=O)C[C@H]1c2ccc3c(c2)CN(CC3)C(=O)c2ccc(cc2)CC=CCCCn2nnc3c(C)c1ccc32`, for which the ring closure, yield of all isomers (from C=CCCCn1nnc2c(C)c([C@@H](CC(=O)OC)c3ccc4c(c3)CN(C(=O)c3ccc(CC=C)cc3)CC4)ccc21, rcm bond, Grubbs catalyst) is 99%.

Broadly, the EC50 is the concentration that produces a half-maximal response. Broadly, the IC50 is the midpoint of a concentration-inhibition curve. A lower IC50 goes with greater potency. With `O=C(O)CC1c2ccc(nc2)OCCCCOc2ccc(cc2)C(=O)N2CCc3ccc1cc3C2` (stereo not shown) [Compound 211, 2-(4-oxo-31,32,33,34-tetrahydro-6,11-dioxa-3(7,2)-isoquinolina-1(5,2)-pyridina-5(1,4)-benzenacycloundecaphane-2-yl)acetic Acid], the EC50 in series [1] worked out at 1730 nM; in series [1] (Homo sapiens), 2210 nM; in series [2] (Homo sapiens) it was 829 nM; in series [2], 574 nM. The ring closure, yield of all isomers (from COC(=O)CC(c1ccc(OCCCCOc2ccc(C(=O)OC(C)(C)C)cc2)nc1)c1ccc2c(c1)CN(C(=O)OC(C)(C)C)CC2, amide bond, 3 steps) amounted to 7.8%. Also, in series [3], the concentration for half-maximal inhibition (IC50) is 10.7 nM and 24.5 nM.

Turning to “amide of 7-(3-methoxy-3-oxo-1-(2-(pent-4-en-1-yloxy)pyrimidin-5-yl)propyl)-1,2,3,4-tetrahydroisoquinolin-2-ium chloride with 4-vinylbenzoic acid”, the ring closure, crude yield in series [4] (21-membered ring, Grubbs catalyst (General procedure 15)) came out at 20%.

In the case of “amide of benzyl 3-(6-(pent-4-en-1-yloxy)pyridin-3-yl)-3-(1,2,3,4-tetrahydroisoquinolin-7-yl)propanoate with 1-methyl-5-vinyl-1H-pyrrolo[2,3-b]pyridine-2-carboxylic acid”, the ring closure, crude yield in series [4] (22-membered ring, Grubbs catalyst (General procedure 15)) turned out to be 51%.

“amide of methyl 3-(1-(but-3-en-1-yl)-4-methyl-1H-benzo[d][1,2,3]triazol-5-yl)-3-(1,2,3,4-tetrahydroisoquinolin-7-yl)propanoate with 5-(but-3-en-1-yloxy)pyrazine-2-carboxylic acid” gave a ring closure, crude yield in series [4] (23-membered ring, Grubbs catalyst (General procedure 7)) of 42%.
